Values joined by “and” are separate entries in the source; they are usually repeats but may differ in a detail not shown here. Equal values may be shown once.
How the values were obtained:
Type in all cases: cell-based
[1] = molecular target: T1, 320 non-olfactory GPCRs (Homo sapiens, UniProt P51684)
T1 construct: expressed in transfected cells; host or cells: HTLA cells

[2] = molecular target: T2, 320 non-olfactory GPCRs (Homo sapiens, UniProt P20309)
T2 construct: expressed in transfected cells; host or cells: HTLA cells
T2 sequence (P20309 whole entry): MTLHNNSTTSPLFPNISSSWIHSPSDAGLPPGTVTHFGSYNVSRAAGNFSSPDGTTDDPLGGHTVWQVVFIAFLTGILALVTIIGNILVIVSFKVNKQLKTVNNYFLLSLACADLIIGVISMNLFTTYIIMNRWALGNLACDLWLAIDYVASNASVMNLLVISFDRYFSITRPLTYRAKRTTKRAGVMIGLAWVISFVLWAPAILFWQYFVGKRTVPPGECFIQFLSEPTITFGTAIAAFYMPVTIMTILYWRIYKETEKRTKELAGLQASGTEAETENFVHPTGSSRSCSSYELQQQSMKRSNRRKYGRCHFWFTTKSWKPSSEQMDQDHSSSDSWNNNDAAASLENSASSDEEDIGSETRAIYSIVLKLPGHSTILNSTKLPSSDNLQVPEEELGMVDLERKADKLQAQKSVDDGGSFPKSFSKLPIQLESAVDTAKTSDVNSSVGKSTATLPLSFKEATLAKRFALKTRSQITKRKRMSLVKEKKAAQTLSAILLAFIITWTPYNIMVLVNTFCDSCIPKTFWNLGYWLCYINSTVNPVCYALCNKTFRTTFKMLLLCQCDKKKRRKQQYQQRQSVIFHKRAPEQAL

[3] = molecular target: 320 non-olfactory GPCRs (Homo sapiens, UniProt Q96LA9); settings: receptor MRGPRX4; replicate values, Fig_4g
Chain of 320 non-olfactory GPCRs (Homo sapiens, UniProt Q96LA9) (Q96LA9 whole entry): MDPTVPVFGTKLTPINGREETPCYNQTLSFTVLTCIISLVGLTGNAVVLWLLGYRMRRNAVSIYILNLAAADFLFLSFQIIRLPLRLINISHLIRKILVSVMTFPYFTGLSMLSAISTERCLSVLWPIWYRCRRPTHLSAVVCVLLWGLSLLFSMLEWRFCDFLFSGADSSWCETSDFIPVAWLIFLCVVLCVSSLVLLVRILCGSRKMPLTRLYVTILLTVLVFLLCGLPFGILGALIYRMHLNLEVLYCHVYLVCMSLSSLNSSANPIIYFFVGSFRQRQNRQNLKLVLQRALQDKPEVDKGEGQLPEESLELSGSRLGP

[4] = molecular target: T3, 320 non-olfactory GPCRs (Homo sapiens, UniProt P50391); settings: receptor NPY4R; replicate values, Fig_4g
T3 construct: expressed in transfected cells; host or cells: HTLA cells
T3 sequence (P50391 whole entry): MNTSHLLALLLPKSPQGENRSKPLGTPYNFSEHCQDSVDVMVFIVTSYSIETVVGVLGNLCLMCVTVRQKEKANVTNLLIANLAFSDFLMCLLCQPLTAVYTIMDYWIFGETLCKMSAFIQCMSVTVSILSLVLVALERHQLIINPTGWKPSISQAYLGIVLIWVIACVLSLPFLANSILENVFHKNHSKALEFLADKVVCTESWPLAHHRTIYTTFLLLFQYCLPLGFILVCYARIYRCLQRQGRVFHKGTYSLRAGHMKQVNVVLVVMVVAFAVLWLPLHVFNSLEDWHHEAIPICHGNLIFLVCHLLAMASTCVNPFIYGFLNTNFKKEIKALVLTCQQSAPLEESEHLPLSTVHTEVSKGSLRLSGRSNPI
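For Fold of Basal in this document: compound tested at 1 µM final concentration.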
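For GPCRome agonism screen response in this document: fold over basal response of each receptor without drug.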

T1 sequence (P51684 whole entry): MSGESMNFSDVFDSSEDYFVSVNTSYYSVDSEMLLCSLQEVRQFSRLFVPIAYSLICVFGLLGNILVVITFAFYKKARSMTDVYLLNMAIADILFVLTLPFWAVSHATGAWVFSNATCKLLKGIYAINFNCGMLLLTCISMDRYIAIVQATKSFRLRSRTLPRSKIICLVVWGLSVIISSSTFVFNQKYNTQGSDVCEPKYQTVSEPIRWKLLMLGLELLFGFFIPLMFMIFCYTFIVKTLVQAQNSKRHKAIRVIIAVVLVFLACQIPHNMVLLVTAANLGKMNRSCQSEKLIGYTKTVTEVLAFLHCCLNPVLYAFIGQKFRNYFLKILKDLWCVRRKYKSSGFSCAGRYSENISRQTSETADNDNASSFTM

SMILES: CCOc1cccc2cc(C(C)NCC3(O)CCCCC3)oc12 (stereo not shown) [O4LE6]
- Fold of Basal [1]: 0.9905 and 0.8775 and 0.7328 and 0.5067
- Fold of Basal [2]: 0.7288 and 1.095 and 0.9519 and 0.808
- GPCRome agonism screen response [3]: 0.3813 and 0.7022 and 0.804 and 1.112
- GPCRome agonism screen response [4]: 0.9177 and 0.7118 and 1.258 and 0.6362

— PMC7044277 (Nature Communications, 2020)
